In patent US12617757B2, “Compounds and modules for inhibition of pre-miR-21 and their use in treatment of certain cancers” (University of Florida Research Foundation, Incorporated, priority 2019, dated 2026):

Biological target: T1, RNase L (Homo sapiens, UniProt Q05823)
T1 sequence (Q05823 1-741): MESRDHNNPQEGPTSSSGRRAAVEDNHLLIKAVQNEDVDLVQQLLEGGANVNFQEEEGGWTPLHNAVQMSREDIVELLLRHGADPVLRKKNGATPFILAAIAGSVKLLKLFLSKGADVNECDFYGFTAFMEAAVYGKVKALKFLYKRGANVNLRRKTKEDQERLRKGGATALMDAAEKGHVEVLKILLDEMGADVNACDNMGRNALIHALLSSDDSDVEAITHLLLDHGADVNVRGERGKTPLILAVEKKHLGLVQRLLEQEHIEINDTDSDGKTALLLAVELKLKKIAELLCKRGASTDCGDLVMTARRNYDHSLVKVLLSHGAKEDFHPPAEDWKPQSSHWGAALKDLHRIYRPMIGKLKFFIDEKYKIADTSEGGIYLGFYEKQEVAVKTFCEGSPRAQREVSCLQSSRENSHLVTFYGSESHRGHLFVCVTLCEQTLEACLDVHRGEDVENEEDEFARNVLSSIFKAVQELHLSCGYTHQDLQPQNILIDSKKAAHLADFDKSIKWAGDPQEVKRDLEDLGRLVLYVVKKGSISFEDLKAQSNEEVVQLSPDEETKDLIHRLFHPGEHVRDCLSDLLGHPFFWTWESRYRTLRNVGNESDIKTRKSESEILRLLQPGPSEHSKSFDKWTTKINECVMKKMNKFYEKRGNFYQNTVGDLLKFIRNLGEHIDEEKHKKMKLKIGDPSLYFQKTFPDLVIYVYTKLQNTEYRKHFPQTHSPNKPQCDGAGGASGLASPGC
Experiment: In vitro fluorescence recovery assay with model RNA (RNase L activation)
Type: biochemical
Parameters: GST; made in house
Description: In Vitro Fluorescent RNA Cleavage. A model RNA hairpin^15 labeled with a 5′ 6-Fluorescein (6FAM) and 3′ Black Hole Quencher (IQ4) (5′ 6FAM-[…]-3′ IQ4; 5′ FAM/3′ BHQ model RNA) (SEQ ID NO: 3) or a miR-21 Hairpin Precursor RNA labeled with a 5′ 6-Fluorescein (6FAM) and 3′ Black Hole Quencher (IQ4) (5′ 6FAM-[…] […]-3′ IQ4; 5′ FAM/3′ BHQ miR-21 Hairpin Precursor RNA) (SEQ ID NO: 4) was purchased from Chemgenes with HPLC purification. Solutions of RNA (100 nM) were folded at 65° C. for 5 min and slowly cooled to room temperature in 1×RNase L Buffer (25 mM Tris-HCl, pH 7.4, 100 mM KCl) without MgCl2, β-mercaptoethanol or ATP. After folding, the RNA was supplemented with 10 mM MgCl2, fresh 7 mM β-mercaptoethanol, and 50 μM of ATP. Next, 100 nM of RNase L, prepared as described previously^22, and various concentrations of screening compounds were prepared in 1×RNase L Buffer and added to the RNA. […] The samples were incubated at room temperature for 60 min after which the fluorescence intensity (Ex: 485 nm, Em: 525 nm) was measured using a SpectraMax M5 plate reader or Biotek FLx800 plate reader. The percentage change in fluorescence intensity, where enhancement of fluorescence intensity was indicative of RNA cleavage, was determined by calculating the percentage change in sample fluorescent signals relative to the untreated fluorescent signal (Fi, %). […]

- RNase L activation, dose-responsive measurements: most active activator of RNase L
SMILES: CCOC(=O)C1=C(Nc2ccccc2)S/C(=C\c2ccc(OC)c(O)c2)C1=O [Compound 3]
